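Following 48 hours of exposure in 96-well plates, responses at five concentrations were used to interpolate endpoints linearly. GI50: concentration for 50% inhibition of growth.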 Calls of active or inactive are those of the source. Cut-off read from the data, not from the text of the source: active = GI50 up to about 1.1 µM and inactive = higher.
Columns and labels:
Assay in all cases: NCI anticancer screen, dose series, 48 h
DLD-1 = test system: DLD-1
A498 = test system: A498
UACC-62 = test system: UACC-62
SF-268 = test system: SF-268
EKVX = test system: EKVX
SW-620 = test system: SW-620
CAKI-1 = test system: CAKI-1
SK-OV-3 = test system: SK-OV-3
RPMI-8226 = test system: RPMI-8226
MOLT-4 = test system: MOLT-4
U-251 = test system: U-251
HCC 2998 = test system: HCC 2998
NCI-H522 = test system: NCI-H522
SF-539 = test system: SF-539
HCT-116 = test system: HCT-116
RXF 393 = test system: RXF 393
M14 = test system: M14

Measured: GI50

O=c1ccn(/C=C/C(O)C(O)CO)c(=O)[nH]1 (stereo not given)
inactive: DLD-1 > 100 µM | A498 > 100 µM | UACC-62 > 100 µM | SF-268 > 100 µM | EKVX > 100 µM | SW-620 > 100 µM | CAKI-1 > 100 µM | SK-OV-3 > 100 µM | RPMI-8226 > 100 µM | MOLT-4 > 100 µM | U-251 > 100 µM | HCC 2998 > 100 µM | NCI-H522 > 100 µM | SF-539 > 100 µM | HCT-116 > 100 µM

CCCCC(C(=O)C(=O)Nc1ccc(C)cc1C)C(=O)C(C)C (stereo not given)
inactive: DLD-1 > 100 µM | RXF 393 > 100 µM | A498 > 100 µM | UACC-62 > 100 µM | SF-268 > 100 µM | EKVX > 100 µM | M14 > 100 µM | SW-620 > 100 µM | CAKI-1 > 100 µM | RPMI-8226 > 100 µM | MOLT-4 > 100 µM | U-251 > 100 µM | HCC 2998 > 100 µM | SF-539 > 100 µM | HCT-116 > 100 µM

COc1ccc(CCN(C)C2CCC(C#N)(c3ccc(OC)c(OC)c3)CC2)cc1OC (stereo not given)
inactive: DLD-1 > 100 µM | RXF 393 > 100 µM | UACC-62 > 100 µM | SF-268 > 100 µM | EKVX > 100 µM | M14 > 100 µM | SW-620 > 100 µM | SK-OV-3 > 100 µM | RPMI-8226 54 µM | MOLT-4 > 100 µM | U-251 > 100 µM | HCC 2998 34.8 µM | NCI-H522 > 10 µM | SF-539 > 100 µM | HCT-116 85.3 µM

Cc1ccc(Cc2c(=O)[nH]nc3ccccc23)cc1
inactive: DLD-1 > 100 µM | A498 > 100 µM | UACC-62 > 100 µM | SF-268 > 100 µM | EKVX > 100 µM | M14 > 100 µM | SW-620 > 100 µM | CAKI-1 > 100 µM | SK-OV-3 > 100 µM | RPMI-8226 > 100 µM | MOLT-4 > 100 µM | HCC 2998 > 100 µM | SF-539 > 100 µM | HCT-116 > 100 µM

C/C(CN1C(=O)c2ccccc2C1=O)=N\NS(=O)(=O)c1ccccc1
inactive: DLD-1 > 100 µM | A498 > 100 µM | UACC-62 > 100 µM | SF-268 > 100 µM | EKVX > 100 µM | M14 > 100 µM | SW-620 > 100 µM | CAKI-1 > 100 µM | SK-OV-3 > 100 µM | RPMI-8226 > 100 µM | MOLT-4 > 100 µM | U-251 > 100 µM | HCC 2998 > 100 µM | NCI-H522 > 100 µM | SF-539 > 100 µM | HCT-116 > 100 µM

O=C(Nc1ccc(Cl)cc1)C1C(=O)C(=O)N(c2ccc(Cl)cc2)C1=O (stereo not given)
inactive: DLD-1 68.9 µM | RXF 393 > 100 µM | A498 60.7 µM | UACC-62 > 100 µM | SF-268 > 100 µM | EKVX > 100 µM | M14 > 100 µM | SW-620 > 100 µM | CAKI-1 > 100 µM | SK-OV-3 > 100 µM | RPMI-8226 > 100 µM | MOLT-4 71.3 µM | U-251 58.6 µM | NCI-H522 > 100 µM | SF-539 > 100 µM | HCT-116 53.7 µM

CC(=O)NC(CCCNC(=O)N(CCCl)N=O)C(=O)NCc1ccccc1 (stereo not given)
inactive: DLD-1 58.6 µM | RXF 393 > 100 µM | UACC-62 > 100 µM | SF-268 6.53 µM | EKVX > 100 µM | M14 > 100 µM | SW-620 > 100 µM | CAKI-1 > 100 µM | RPMI-8226 > 100 µM | MOLT-4 38.5 µM | U-251 27.6 µM | HCC 2998 > 100 µM | NCI-H522 > 100 µM | SF-539 11.7 µM | HCT-116 > 100 µM

C/C=C1\CCC2c3[nH]c4ccccc4c3CCN2C1 (stereo not given)
inactive: DLD-1 > 100 µM | RXF 393 66.4 µM | A498 > 100 µM | UACC-62 > 100 µM | SF-268 > 100 µM | EKVX > 100 µM | M14 21.5 µM | SW-620 > 100 µM | CAKI-1 > 100 µM | SK-OV-3 > 100 µM | MOLT-4 76.4 µM | U-251 > 100 µM | NCI-H522 83.8 µM | SF-539 > 100 µM | HCT-116 56 µM

Cc1ccccc1C1SCc2nc3ccccc3n21 (stereo not given)
inactive: DLD-1 > 100 µM | RXF 393 > 100 µM | UACC-62 7.28 µM | SF-268 > 100 µM | EKVX > 100 µM | CAKI-1 > 100 µM | SK-OV-3 > 100 µM | RPMI-8226 5.85 µM | U-251 > 100 µM | HCC 2998 > 100 µM | NCI-H522 21.8 µM | SF-539 70.1 µM | HCT-116 4.72 µM

O=C(O)C1CC2CC(=O)C1C2 (stereo not given)
inactive: DLD-1 > 100 µM | RXF 393 > 100 µM | A498 > 100 µM | UACC-62 > 100 µM | SF-268 > 100 µM | EKVX > 100 µM | M14 > 100 µM | SW-620 > 100 µM | CAKI-1 > 100 µM | SK-OV-3 > 100 µM | RPMI-8226 > 100 µM | MOLT-4 > 100 µM | U-251 > 100 µM | NCI-H522 > 100 µM | SF-539 > 100 µM | HCT-116 > 100 µM

C1=CC2SSSC2C1 (stereo not given)
inactive: DLD-1 > 100 µM | RXF 393 > 100 µM | UACC-62 > 100 µM | SF-268 > 100 µM | EKVX > 100 µM | M14 > 100 µM | SW-620 > 100 µM | SK-OV-3 > 100 µM | RPMI-8226 > 100 µM | MOLT-4 > 100 µM | U-251 > 100 µM | HCC 2998 > 100 µM | NCI-H522 > 100 µM | SF-539 > 100 µM | HCT-116 > 100 µM

CC12Oc3ccc4ccccc4c3CC1Cc1c(ccc3ccccc13)O2 (stereo not given)
inactive: DLD-1 58.1 µM | RXF 393 27.2 µM | SF-268 > 100 µM | EKVX > 100 µM | M14 38.9 µM | SW-620 > 100 µM | CAKI-1 48 µM | U-251 50.6 µM | HCC 2998 > 100 µM | NCI-H522 70 µM | SF-539 60.4 µM | HCT-116 > 100 µM

Cc1cc2c(C)n(Cc3ccc(Cl)cc3Cl)nc2c(C(=O)O)c1C
inactive: DLD-1 > 100 µM | RXF 393 > 100 µM | UACC-62 96.8 µM | SF-268 > 100 µM | EKVX > 100 µM | SW-620 > 100 µM | SK-OV-3 > 100 µM | RPMI-8226 > 100 µM | MOLT-4 > 100 µM | U-251 > 100 µM | HCC 2998 > 100 µM | SF-539 > 100 µM | HCT-116 > 100 µM

Cc1cc(=O)oc2cc3c(cc12)Oc1ccccc1O3
inactive: DLD-1 > 100 µM | RXF 393 > 100 µM | A498 > 100 µM | UACC-62 > 100 µM | SF-268 38.3 µM | EKVX > 10 µM | M14 > 100 µM | SW-620 > 100 µM | SK-OV-3 99.8 µM | RPMI-8226 > 100 µM | MOLT-4 > 100 µM | U-251 45.1 µM | HCC 2998 > 10 µM | SF-539 18.1 µM | HCT-116 44.9 µM

From ChEMBL document CHEMBL1201862, “PubChem BioAssay data set” (2004)
